In US20200024278A1, “COMPOSITION COMPRISING ANTIBIOTIC COMPOUND AND AN HETEROCYCLIC COMPOUND AND THEIR USE IN PREVENTING OR TREATING BACTERIAL INFECTIONS” (MUTABILIS, priority 2016, published 2020):
Read-outs that look alike come from different tables or passages of the source.

Key:
Experiment in all cases: MIC, broth microdilution (CLSI), substance alone or ATB combined with compound at 4 or 8 μg/mL
[1] = tested on: ECL P99; format: cell-based, E. cloacae; details: ECL P99; for MIC: Enterobacter cloacae
How it was run: (§1)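 CLSI broth microdilution in cation-adjusted Mueller-Hinton broth, 5·10^5 CFU/mL log-phase inoculum, 16-20 h at 35 °C in ambient air. Fosfomycin assays supplemented with 25 μg/ml glucose-6-phosphate.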

[2] = tested on: PAE 105250; format: cell-based, P. aeruginosa; details: PAE 105250
How it was run: as §1

[3] = tested on: PAE UFR48; format: cell-based, P. aeruginosa; details: PAE UFR48
How it was run: as §1

[4] = tested on: PAE UFR90; format: cell-based, P. aeruginosa; details: PAE UFR90
How it was run: as §1

[5] = tested on: SAU 29213; format: cell-based, S. aureus; details: SAU 29213
How it was run: as §1

[6] = tested on: SPN 49619; format: cell-based, S. pneumoniae; details: SPN 49619
How it was run: as §1

[7] = Pseudomonas aeruginosa, antibiotic alone, read-out: MIC ATB alone

CC1(C)S[C@@H]2[C@H](NC(=O)[C@H](N)c3ccc(O)cc3)C(=O)N2[C@H]1C(=O)O [AMX, Amoxicillin, reference compound]
> 32 µg/mL: MIC [4, 7]
<=0.031 μg/mL: MIC ATB combined with Example 7 @8 μgml ([6]; with Example 7 at 8 μg/ml) | MIC ATB combined with Example 13 @8 μg/ml ([6]; with Example 13 at 8 μg/ml)
>32 µg/mL: MIC ATB combined with Example 7 @8 μgml ([1]; with Example 7 at 8 μg/ml) | MIC ATB combined with Example 13 @8 μg/ml ([1]; with Example 13 at 8 μg/ml) | MIC ATB combined with Example 7 @8 μgml ([2]; with Example 7 at 8 μg/ml) | MIC ATB combined with Example 9 @4 μg/ml ([2]; with Example 9 @4 μg/ml) | MIC ATB combined with Example 9 @4 μg/ml ([2]; with Example 9 at 4 μg/ml) | MIC ATB combined with Example 11 @8 μg/ml ([2]; with Example 11 at 8 μg/ml) | MIC ATB combined with Example 12 @8 μg/ml ([2]; with Example 12 at 8 μg/ml) | MIC ATB combined with Example 13 @8 μg/ml ([2]; with Example 13 at 8 μg/ml) | MIC ATB combined with Example 14 @8 μg/ml ([2]; with Example 14 at 8 μg/ml) | MIC ATB combined with Example 15 @4 μgml ([2]; with Example 15 at 4 μg/ml) | MIC ATB combined with Example 16 @4 μg/ml ([2]; with Example 16 at 4 μg/ml) | MIC ATB combined with Example 7 @8 μgml ([3]; with Example 7 at 8 μg/ml) | MIC ATB combined with Example 9 @4 μg/ml ([3]; with Example 9 @4 μg/ml) | MIC ATB combined with Example 9 @4 μg/ml ([3]; with Example 9 at 4 μg/ml) | MIC ATB combined with Example 11 @8 μg/ml ([3]; with Example 11 at 8 μg/ml) | MIC ATB combined with Example 12 @8 μg/ml ([3]; with Example 12 at 8 μg/ml) | MIC ATB combined with Example 13 @8 μg/ml ([3]; with Example 13 at 8 μg/ml) | MIC ATB combined with Example 14 @8 μg/ml ([3]; with Example 14 at 8 μg/ml) | MIC ATB combined with Example 15 @4 μgml ([3]; with Example 15 at 4 μg/ml) | MIC ATB combined with Example 16 @4 μg/ml ([3]; with Example 16 at 4 μg/ml) | MIC ATB combined with Example 7 @8 μgml ([4]; with Example 7 at 8 μg/ml) | MIC ATB combined with Example 9 @4 μg/ml ([4]; with Example 9 @4 μg/ml) | MIC ATB combined with Example 9 @4 μg/ml ([4]; with Example 9 at 4 μg/ml) | MIC ATB combined with Example 11 @8 μg/ml ([4]; with Example 11 at 8 μg/ml) | MIC ATB combined with Example 12 @8 μg/ml ([4]; with Example 12 at 8 μg/ml) | MIC ATB combined with Example 13 @8 μg/ml ([4]; with Example 13 at 8 μg/ml) | MIC ATB combined with Example 14 @8 μg/ml ([4]; with Example 14 at 8 μg/ml) | MIC ATB combined with Example 15 @4 μgml ([4]; with Example 15 at 4 μg/ml) | MIC ATB combined with Example 16 @4 μg/ml ([4]; with Example 16 at 4 μg/ml)
0.25 µg/mL: MIC ATB combined with Example 1 @8 μg/ml ([5]; with Example 1 @8 μg/ml) | MIC ATB combined with Example 1 @8 μg/ml ([5]; with Example 1 at 8 μg/ml)
2 µg/mL: MIC ([5]; Staphylococcus aureus, antibiotic alone, read-out: MIC ATB alone)
> 1020 µg/mL: MIC ([1]; antibiotic alone, read-out: MIC ATB alone) | MIC ([1]; substance alone, read-out: MIC) | MIC [2, 7] | MIC [3, 7]
<0.031 µg/mL: MIC ATB combined with Example 1 @8 μg/ml ([1]; with Example 1 at 8 μg/ml) | MIC ATB combined with Example 9 @4 μg/ml ([1]; with Example 9 @4 μg/ml) | MIC ATB combined with Example 9 @4 μg/ml ([1]; with Example 9 at 4 μg/ml) | MIC ATB combined with Example 11 @8 μg/ml ([1]; with Example 11 at 8 μg/ml) | MIC ATB combined with Example 12 @8 μg/ml ([1]; with Example 12 at 8 μg/ml) | MIC ATB combined with Example 14 @8 μg/ml ([1]; with Example 14 at 8 μg/ml) | MIC ATB combined with Example 15 @4 μgml ([1]; with Example 15 at 4 μg/ml) | MIC ATB combined with Example 16 @4 μg/ml ([1]; with Example 16 at 4 μg/ml) | MIC ATB combined with Example 1 @8 μg/ml ([3]; with Example 1 @8 μg/ml) | MIC ATB combined with Example 1 @8 μg/ml ([3]; with Example 1 at 8 μg/ml) | MIC ATB combined with Example 1 @8 μg/ml ([4]; with Example 1 @8 μg/ml) | MIC ATB combined with Example 1 @8 μg/ml ([4]; with Example 1 at 8 μg/ml) | MIC ATB combined with Example 9 @4 μg/ml ([5]; with Example 9 @4 μg/ml) | MIC ATB combined with Example 9 @4 μg/ml ([5]; with Example 9 at 4 μg/ml) | MIC ATB combined with Example 11 @8 μg/ml ([5]; with Example 11 at 8 μg/ml) | MIC ATB combined with Example 12 @8 μg/ml ([5]; with Example 12 at 8 μg/ml) | MIC ATB combined with Example 14 @8 μg/ml ([5]; with Example 14 at 8 μg/ml) | MIC ATB combined with Example 15 @4 μgml ([5]; with Example 15 at 4 μg/ml) | MIC ATB combined with Example 16 @4 μg/ml ([5]; with Example 16 at 4 μg/ml) | MIC ATB combined with Example 9 @4 μg/ml ([6]; with Example 9 @4 μg/ml) | MIC ATB combined with Example 9 @4 μg/ml ([6]; with Example 9 at 4 μg/ml) | MIC ATB combined with Example 11 @8 μg/ml ([6]; with Example 11 at 8 μg/ml) | MIC ATB combined with Example 12 @8 μg/ml ([6]; with Example 12 at 8 μg/ml) | MIC ATB combined with Example 14 @8 μg/ml ([6]; with Example 14 at 8 μg/ml) | MIC ATB combined with Example 15 @4 μgml ([6]; with Example 15 at 4 μg/ml) | MIC ATB combined with Example 16 @4 μg/ml ([6]; with Example 16 at 4 μg/ml)
